Read-outs that look alike come from different tables or passages of the source.
Legend:
[1] = rat, in vivo; for % Bioavailability of dantrolene: 7.5 mg/kg
[2] = not given; remark: listed apart in the source
[3] = Whole-blood pharmacokinetics of Compound 2a in live rats (second analysis); assay type: in vivo; settings: 7.5 mg/kg Compound 2a
[4] = Another pharmacokinetic analysis of Compound 2a in live rats (whole blood and plasma; IV, IM, SC); assay type: in vivo; settings: 7.5 mg/kg Compound 2a
[5] = design: species or system Harlan Sprague Dawley rats; settings: rat, in vivo, 7.5 mg/kg
Procedure: Compound 2a is formulated at 8 mg/mL in 5% aqueous mannitol (as a tonicity modifier), at pH 8.0. The formulation is administered IV, SC, or IM to cannulated Harlan Sprague Dawley rats (3 rats/group) from Envigo RMS, Inc. (Indianapolis, Ind.). […] Whole blood (0.1 mL) is collected via a jugular vein catheter at 0, 0.033 (IV only), 0.083, 0.167, 0.33, 0.66, 1, 3, 6, and 9 hours. […] Samples are then placed on wet ice until centrifugation to remove precipitate. […] Samples are quantified based on standard curves prepared with each analyte in the precipitated whole blood matrix. […] Area Under the Curve (AUC) is calculated using the trapezoidal rule by SigmaPlot 12.5 software.

[6] = physchem; settings: rat, plasma
[7] = cited from earlier work

O=C1CN(/N=C/c2ccc(-c3ccc([N+](=O)[O-])cc3)o2)C(=O)N1COP(=O)([O-])[O-].[Na+].[Na+] [Compound 2a]
conversion to dantrolene in phosphate-buffered saline: no conversion was observed
amount of 2a observed after administration [1]: only trace amounts
% Bioavailability of dantrolene ([1]; im): 77.8%
% Bioavailability of dantrolene ([1]; iv): 100%
half-life of prodrug in rat plasma [2]: 1.37 h
% Bioavailability of dantrolene ([3]; IM): 95.3%
% Bioavailability of dantrolene ([3]; IV): 100%
% Bioavailability of dantrolene ([4]; plasma, IM): 56.7%
% Bioavailability of dantrolene ([4]; plasma, IV): 100%
% Bioavailability of dantrolene ([4]; plasma, SC): 49.7%
% Bioavailability of dantrolene ([4]; whole blood, IM): 80.8%
% Bioavailability of dantrolene ([4]; whole blood, IV): 100%
% Bioavailability of dantrolene ([4]; whole blood, SC): 64.0%
appearance of dantrolene in the blood after administration [5]: rapid appearance of dantrolene in the blood

O=C(O)CCC(=O)OCc1ccc(NC(=O)OCN2C(=O)CN(/N=C/c3ccc(-c4ccc([N+](=O)[O-])cc4)o3)C2=O)cc1 [Compound 17b]
half-life at 100 μg/mL [6]: 7.45 h

Cl.NCC(=O)OCN1C(=O)CN(/N=C/c2ccc(-c3ccc([N+](=O)[O-])cc3)o2)C1=O [Compound 22c]
reconversion in phosphate-buffered saline: 85%
half-life of prodrug in rat plasma [2]: 0.0533 h

O=C1CN(/N=C/c2ccc(-c3ccc([N+](=O)[O-])cc3)o2)C(O)=N1 [Dantrolene, 1-{[5-(4-nitrophenyl)-2-furyl]methylideneamino}imidazolidine-2,4-dione]
solubility in water [7]: very poorly soluble in water
